One data set deals with CLK1 (Homo sapiens, UniProt P49759). In words: kinase activity profiling, CLK1. It counts as biochemical.
For data set [1], the system named is human β-cells. In words: glucose-stimulated insulin secretion (GSIS) in dissociated islet cells. The conditions noted are these: cells treated for 12 days. The class given is cell-based. The text has this: In the DMSO-treated state, glucose stimulated ˜2-fold increase in insulin secretion in dissociated islet cells. […] Although incompletely understood, the loss of basal secretion may be due to cell-death effects on other cells in the culture system.

In data set [2] the test system is liver, adipose, muscle, and kidney tissue. In words: proliferation of other tissues in 5-IT-treated mice. It counts as in vivo. The conditions noted are these: 0.625 mg/kg i.p. twice a week for 3 weeks.
The target in another data set is DYRK1B (Homo sapiens, UniProt Q9Y463). Description: kinase activity profiling, DYRK1B. It counts as biochemical.
DYRK1B, sequence (Q9Y463 whole entry): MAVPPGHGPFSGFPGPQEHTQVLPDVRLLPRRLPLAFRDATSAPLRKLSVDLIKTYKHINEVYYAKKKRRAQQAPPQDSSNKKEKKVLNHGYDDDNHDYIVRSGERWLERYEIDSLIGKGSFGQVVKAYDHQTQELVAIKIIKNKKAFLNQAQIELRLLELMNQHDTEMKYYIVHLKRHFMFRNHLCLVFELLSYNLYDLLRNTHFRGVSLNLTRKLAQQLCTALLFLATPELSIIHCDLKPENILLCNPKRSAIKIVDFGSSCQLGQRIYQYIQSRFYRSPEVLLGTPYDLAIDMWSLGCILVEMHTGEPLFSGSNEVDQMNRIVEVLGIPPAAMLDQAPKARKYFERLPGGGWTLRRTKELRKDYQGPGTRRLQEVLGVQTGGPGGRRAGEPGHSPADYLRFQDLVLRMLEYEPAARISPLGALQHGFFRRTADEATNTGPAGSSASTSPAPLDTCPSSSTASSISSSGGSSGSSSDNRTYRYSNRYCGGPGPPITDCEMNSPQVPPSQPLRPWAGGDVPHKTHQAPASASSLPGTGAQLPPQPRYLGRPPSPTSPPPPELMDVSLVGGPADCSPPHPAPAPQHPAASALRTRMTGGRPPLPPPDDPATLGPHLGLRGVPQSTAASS
Data set [3] relates to human β-cells. In words: human islet cell-culture EdU proliferation assay. The class given is cell-based. The text has this:
A human islet cell-culture system and proliferation assay developed by Wagner et al. was used to not only of preserve β-cell function over 7-10 days in culture, but also identify conditions that increase β-cell division.[32] The thymidine analog 5-ethinyl-2′-deoxyuridine (EdU) was used, which, when reacted with an azide-conjugated fluorophore, enables rapid and high-quality imaging of cells that have ever gone through S phase.[34] The detection was paired with insulin immunofluorescence, followed by automated imaging and analysis to identify EdU+ins+ cells after compound treatment. Islet cells were incubated with EdU for 6 days, consistent with the low rate of human β-cell proliferation. […] The quality of the assay was verified by using as a positive control adenoviral overexpression of human CDK6 and cyclin D1.[35]
[38] […] This effect was consistent across >20 human islet donors, irrespective of age, gender, BMI, or cause of death.

In a further data set the target is CLK4 (Homo sapiens, UniProt Q9HAZ1). In words: kinase activity profiling, CLK4. It counts as biochemical.
CLK4, sequence (Q9HAZ1 whole entry): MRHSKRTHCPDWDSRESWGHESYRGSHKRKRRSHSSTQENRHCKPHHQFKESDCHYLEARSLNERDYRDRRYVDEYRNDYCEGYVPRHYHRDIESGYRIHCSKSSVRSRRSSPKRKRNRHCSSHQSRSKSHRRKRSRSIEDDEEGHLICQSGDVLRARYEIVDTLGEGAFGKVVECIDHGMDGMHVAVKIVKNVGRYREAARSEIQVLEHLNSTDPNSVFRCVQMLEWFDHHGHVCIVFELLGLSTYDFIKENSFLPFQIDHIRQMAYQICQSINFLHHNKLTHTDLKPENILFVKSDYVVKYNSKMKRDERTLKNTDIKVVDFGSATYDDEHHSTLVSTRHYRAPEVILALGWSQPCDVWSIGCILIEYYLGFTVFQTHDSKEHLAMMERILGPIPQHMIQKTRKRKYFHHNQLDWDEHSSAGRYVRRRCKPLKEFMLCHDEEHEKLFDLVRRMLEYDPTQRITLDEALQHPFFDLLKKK
For a further data set, the target named is T1, DYRK2 (Homo sapiens, UniProt Q92630).
T1 sequence (Q92630 1-601): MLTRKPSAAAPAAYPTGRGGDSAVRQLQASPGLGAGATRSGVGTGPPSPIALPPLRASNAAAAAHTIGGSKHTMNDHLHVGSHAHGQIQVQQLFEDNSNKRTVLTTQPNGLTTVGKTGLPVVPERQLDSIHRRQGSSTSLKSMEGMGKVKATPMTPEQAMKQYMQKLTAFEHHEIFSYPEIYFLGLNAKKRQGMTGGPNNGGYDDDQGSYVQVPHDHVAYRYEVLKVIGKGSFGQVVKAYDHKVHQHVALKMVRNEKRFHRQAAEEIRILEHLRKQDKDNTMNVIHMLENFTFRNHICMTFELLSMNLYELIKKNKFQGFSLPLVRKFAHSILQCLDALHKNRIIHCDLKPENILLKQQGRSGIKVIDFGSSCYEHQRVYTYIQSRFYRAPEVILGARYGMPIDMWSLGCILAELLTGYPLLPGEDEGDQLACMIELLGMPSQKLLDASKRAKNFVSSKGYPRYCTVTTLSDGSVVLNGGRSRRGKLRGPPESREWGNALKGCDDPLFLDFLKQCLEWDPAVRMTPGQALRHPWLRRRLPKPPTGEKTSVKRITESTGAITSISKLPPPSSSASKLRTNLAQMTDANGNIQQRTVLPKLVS
Description: kinase activity profiling, DYRK2. It counts as biochemical.

The test system of data set [4] is human β-cells. Description: human islet grafts in NSG mice, β-cell replication. The class given is in vivo, human islets transplanted in NSG mice. The text has this: 1) Establishing a humanized mouse model: The humanized mouse model is established according to Kulkarni et al.[22,23] Briefly, the immunodeficient NOD.Cg-Prkdc^scidIl2rg^tm1Wj1SzJ mouse strain, commonly known as NOD-scid gamma (NSG), combines features of the NOD/ShiLtJ background and […], known as the severe combined immune deficiency mutation (scid), which essentially eliminates adaptive immunity. This strain has utility in studies of hematopoietic and cancer stem cells and of islet transplantation.
A separate group of mice with human islet transplants were injected with DMSO as vehicle controls, and sham-operated animals were used as an additional control group. The injection was repeated twice a week for 3 weeks. In the final week, we injected BrdU (100 mg/kg) daily for 4 days, and six hours after the last BrdU injection the pancreas was harvested. β-cell replication was assessed using previously described protocols.[23] For sivelestat experiments, osmotic pumps loaded with compound (300 μg/kg/day) were implanted into mice, and were treated for 14 days. Mice were provided BrdU in drinking water and injected i.p. on days 8, 11, and 14. Islets were harvested five hours after the last BrdU injection.

For the next data set, the target named is CLK2 (Homo sapiens, UniProt P49760). In words: kinase activity profiling, CLK2. It counts as biochemical.
CLK2, sequence (P49760 whole entry): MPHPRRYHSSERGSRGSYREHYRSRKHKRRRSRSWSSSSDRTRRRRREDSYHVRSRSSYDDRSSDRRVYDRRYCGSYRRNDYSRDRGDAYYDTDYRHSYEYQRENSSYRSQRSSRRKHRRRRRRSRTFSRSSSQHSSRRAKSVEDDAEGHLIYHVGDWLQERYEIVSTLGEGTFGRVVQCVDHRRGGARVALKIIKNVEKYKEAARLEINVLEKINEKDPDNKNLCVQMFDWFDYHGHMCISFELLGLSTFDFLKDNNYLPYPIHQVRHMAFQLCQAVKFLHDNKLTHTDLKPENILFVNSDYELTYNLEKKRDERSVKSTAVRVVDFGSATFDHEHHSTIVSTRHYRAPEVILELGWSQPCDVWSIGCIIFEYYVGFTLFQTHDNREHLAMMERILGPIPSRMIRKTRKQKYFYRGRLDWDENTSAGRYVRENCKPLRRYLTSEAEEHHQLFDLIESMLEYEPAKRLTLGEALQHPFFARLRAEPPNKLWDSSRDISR
Data set [5] relates to aTC1.6, PANC1, HEK293T and cells of other lineages. In words: reaction-based probe (DA-ZP1) fluorescence in non-β cell types. As to the method:
(§1) All the imaging experiments were performed in 96 well plate. INS-1E, PANC1, αTC1.6, HEK293T and other cell types were plated in 96 well plate. 70 μL, 4×PFA was added in each well to fix the cells. After 15 minutes, all the wells were washed with PBS. After washing with PBS, 70 μL DAPI (1×) (nuclear stain) was added along with appropriate concentration of DAZP-1. The staining process was continued for 20 minute and 100 μL PBS as was added in each well.

Another data set concerns islets. In words: islet fluorescence after intraperitoneal injection of DA-ZP1. It counts as in vivo. The conditions noted are these: single dose 50 mg/kg intraperitoneally, 10-12-week old C57BL/6 mice. As to the method:
(§2) Next, this probe was incubated in dissociated rat or human islets, co-staining for insulin to identify β-cells and glucagon to identify alpha cells. […] Using confocal microscopy, distinct green-fluorescent vesicles were observed within β-cells (FIG. 3D), showing the high degree of resolution for the localization of this probe. Finally, 10-12-week old C57BL/6 mice were injected intraperitoneally with a single dose of 50 mg/kg DA-ZP1 or DMSO.

For a further data set, the system named is INS-1E. In words: reaction-based probe (DA-ZP1) fluorescence in a β-cell line. Conditions: compared to other cell types. As to the method:
as §1

The subject of data set [6] is β-cells and alpha cells of dissociated rat or human islets. In words: probe incubation in dissociated islets, co-staining for insulin and glucagon. It counts as cell-based. As to the method:
as §2

Data set [7] relates to liver, skeletal muscle, visceral and subcutaneous adipose tissue, spleen, or kidney. The class given is in vivo, mouse. Conditions: data not shown. As for the experimental part: (§3) Next, sivelestat, a small-molecule inhibitor of elastinolytic proteases and thus a partial mimic of serpinB1 activity, was tested for β-cell proliferation. […] Thus, small molecules promote β-cell proliferation in human islets transplanted in vivo by targeting two independent pathways.

Data set [8] relates to mouse islets (β-cells). Description: sivelestat treatment of mouse islets, β-cell proliferation. Conditions: in vivo. As to the method: as §3
For data set [9], the system named is mouse islets (β-cells). Description: mouse islet culture, Ki67 proliferation. The class given is cell-based. The text has this:
(§4) Liver was found as the source of a secreted factor in this model that can induce β-cell proliferation in mouse and human islets.[24] A proteomics effort using liver, liver explant-conditioned media, hepatocyte-conditioned media, and plasma led to the discovery that serpin B1, a protease inhibitor that targets elastases, is enriched in serum from LIRKO mice (FIG. 10).[1]

The next data set relates to human islets (β-cells). Description: human islet β-cell proliferation with rSerpinB1. The class given is cell-based.
Source text: as §4

The mark [10] stands for this setting: human islet cells, 6 days of treatment.
The mark [11] stands for this setting: 0.625 mg/kg i.p. twice a week for 3 weeks.

Entries after “also recorded” stand apart in the source; their conditions may differ. Read-outs that look alike come from different tables or passages of the source.

CLK1, sequence (P49759 whole entry): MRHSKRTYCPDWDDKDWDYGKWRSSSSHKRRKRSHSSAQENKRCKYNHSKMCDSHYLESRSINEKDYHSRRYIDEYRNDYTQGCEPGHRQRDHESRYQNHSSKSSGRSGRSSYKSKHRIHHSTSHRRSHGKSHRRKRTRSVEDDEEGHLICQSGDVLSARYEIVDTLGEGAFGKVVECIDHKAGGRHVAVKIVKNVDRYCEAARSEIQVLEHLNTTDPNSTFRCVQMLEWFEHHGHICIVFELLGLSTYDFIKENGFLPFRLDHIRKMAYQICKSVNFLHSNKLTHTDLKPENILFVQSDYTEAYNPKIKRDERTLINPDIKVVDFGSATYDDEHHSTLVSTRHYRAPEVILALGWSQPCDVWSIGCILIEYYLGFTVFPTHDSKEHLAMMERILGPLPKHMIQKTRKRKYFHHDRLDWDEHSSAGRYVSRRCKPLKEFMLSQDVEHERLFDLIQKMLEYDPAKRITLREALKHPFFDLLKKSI

As usually defined, the IC50 is the concentration at which inhibition is half-maximal. A higher IC50 goes with weaker potency in that assay. The molecule `Nc1ncnc2c1c(I)cn2[C@@H]1O[C@H](CO)[C@@H](O)[C@H]1O` [5-IT, 5-iodotubercidin] had an IC50 against CLK1 of 36 nM. Moreover, in the data set on human β-cells [1], the “baseline secretion under low-glucose conditions” value is “decreased somewhat in a dose-dependent manner” and the “glucose-stimulated insulin secretion (GSIS)” value is on record as “an increase in GSIS was observed”. Further, the “proliferation of liver, adipose, muscle, and kidney tissue, control vs treated mice” value in [2] was “No significant differences”. Half-maximal inhibition against DYRK1B (IC50) required 10 nM. In the data set with human β-cells [3] (human islet cells), the “concentrations toxic to cells” value is reported as “greater than 1 μM” and the “effect on EdU incorporation / β-cell proliferation” value was “promotes”. Besides, in the data set with human β-cells [3] (setting [10]), the “concentration of maximal effect on proliferation” value was 1 µM and the “increase in proliferation (EdU incorporation)” value was about 10 fold. For the same molecule, in the data set with human β-cells [3] (non-β cells of human islet culture), the “proliferation of the other cell types in the heterogeneous culture system” value is “did not induce proliferation”. This molecule showed an IC50 against CLK4 of 14 nM. Moreover, on DYRK2, the IC50 was determined as 6 nM. In addition, in the data set on human β-cells [4] (setting [11]), the “increase in BrdU incorporation in human islet grafts” value is reported as about 5 fold; the “mitosis by Ki67 and pHH3 immunostaining in human islet grafts” value is on record as “enhanced mitosis was confirmed”. In addition, half-maximal inhibition at CLK2 (IC50) required 10 nM.

Turning to `Nc1ncnc2nc(-c3ccc(N4CCOCC4)nc3)cc(-c3cccc(Br)c3)c12` [ABT-702, 4-amino-5-(3-bromophenyl)-7-(6-morpholinopyridin-3-yl)pyrido[2,3-d]pyrimidine], the “effect on EdU incorporation / β-cell proliferation” value with human β-cells [3] (human islet cells) is “does not; also recorded: no effect”.

As to `CC(=O)Oc1c(Cl)cc2c(c1CN(Cc1ccccn1)Cc1ccccn1)Oc1c(cc(Cl)c(OC(C)=O)c1CN(Cc1ccccn1)Cc1ccccn1)C21OC(=O)c2ccccc21` [DA-ZP1], the “fluorescence / labeling in other cell types” value in data set [5] was “do not observe non-specific labeling”; in [5] (listed as reaction-based probe) it was “minimal background fluorescence”. The “fluorescence in islet sections” value in the data set with islets is reported as “Fluorescence was detected”. Besides, the “fluorescence in β-cells (INS-1E)” value was “high average fluorescent cell intensity and high % fluorescence-positive cells” in the data set on INS-1E; “highly fluorescent” in the data set with INS-1E (listed as reaction-based probe). Besides, the “overlap between glucagon-positive and zinc probe-positive cells” value in [6] is reported as “very little to no overlap”. In addition, in [6], the “overlap between insulin-positive and zinc probe-positive cells” value was “high degree of overlap”.

With `COc1ccc2c(c1)[nH]c1c(C)nccc12` [harmine], the “EdU+ins+ cells” value with human β-cells [3] (5 and 10 μM, 6-days treatment, human islet cells) is “dose-dependent increase”. The “effect on EdU incorporation / β-cell proliferation” value in the data set on human β-cells [3] (human islet cells) is given as “promotes β-cell proliferation in a dose-dependent manner”.

Turning to `CC(C)(C)C(=O)Oc1ccc(S(=O)(=O)Nc2ccccc2C(=O)NCC(=O)O)cc1` [sivelestat], the “effect on liver, skeletal muscle, visceral and subcutaneous adipose tissue, spleen, or kidney” value in data set [7] is recorded as “without a significant effect”. Further, in the data set on mouse islets (β-cells) [8], the “β-cell proliferation in mouse islets” value is on record as “increased β-cell proliferation”. Moreover, in the data set with human β-cells [4] (osmotic pumps 300 μg/kg/day, 14 days), the “proliferation of human β-cells (islet grafts)” value is “increased proliferation”.

B1: rSerpinB1: recombinant human serpinB1, a protease inhibitor that targets elastases (protein, UniProt P30740 1-379, looked up)
Leukocyte elastase inhibitor: MEQLSSANTRFALDLFLALSENNPAGNIFISPFSISSAMAMVFLGTRGNTAAQLSKTFHFNTVEEVHSRFQSLNADINKRGASYILKLANRLYGEKTYNFLPEFLVSTQKTYGADLASVDFQHASEDARKTINQWVKGQTEGKIPELLASGMVDNMTKLVLVNAIYFKGNWKDKFMKEATTNAPFRLNKKDRKTVKMMYQKKKFAYGYIEDLKCRVLELPYQGEELSMVILLPDDIEDESTGLKKIEEQLTLEKLHEWTKPENLDFIEVNVSLPRFKLEESYTLNSDLARLGVQDLFNSSKADLSGMSGARDIFISKIVHKSFVEVNEEGTEAAAATAGIATFCMLMPEENFTADHPFLFFIRHNSSGSILFLGRFSSP
As for B1, the “effect on Ki67+ insulin+ cells” value is recorded as “dose-dependent effect” in the data set on mouse islets (β-cells) [9], “dose-dependent effect” in the data set on mouse islets (β-cells) [9] (listed as serpinB1) and “promotes” with mouse islets (β-cells) [9] (listed as untagged SerpinB1). Further, the “increase in the percentage of Ki67+ins+ cells” value with mouse islets (β-cells) [9] (dose of 1 μg/mL) is reported as 2 fold. Further, the “β-cell proliferation from human islets” value in the data set with human islets (β-cells) is “dose-dependent increase”.

B2: inactive N-tagged serpin B1 construct: inactive N-tagged serpin B1 construct from GeneCopoeia (protein, UniProt P30740 1-379, looked up)
Leukocyte elastase inhibitor: MEQLSSANTRFALDLFLALSENNPAGNIFISPFSISSAMAMVFLGTRGNTAAQLSKTFHFNTVEEVHSRFQSLNADINKRGASYILKLANRLYGEKTYNFLPEFLVSTQKTYGADLASVDFQHASEDARKTINQWVKGQTEGKIPELLASGMVDNMTKLVLVNAIYFKGNWKDKFMKEATTNAPFRLNKKDRKTVKMMYQKKKFAYGYIEDLKCRVLELPYQGEELSMVILLPDDIEDESTGLKKIEEQLTLEKLHEWTKPENLDFIEVNVSLPRFKLEESYTLNSDLARLGVQDLFNSSKADLSGMSGARDIFISKIVHKSFVEVNEEGTEAAAATAGIATFCMLMPEENFTADHPFLFFIRHNSSGSILFLGRFSSP
modifications: N-terminal tag; inactive
With B2, in the data set on mouse islets (β-cells) [9], the “effect on Ki67+ insulin+ cells” value is given as “no impact”.

Values taken from US12208140B2, “Targeted delivery to beta cells” (THE BROAD INSTITUTE, INC., priority 2017, dated 2025).
